Results on 35 compounds are retold here after patent US7045532B2 (Millennium Pharmaceuticals, Inc., priority 1999, dated 2006).

Structures are written as SMILES. Like-named read-outs stand apart in the source and are kept apart here.

The assay has as its target T1, ACE-2 (Homo sapiens, UniProt Q9BYF1).
T1 construct: a stop codon inserted after the serine immediately preceding the transmembrane domain; made in house; host or cells: CHO K1 cells (transient transfection, purified from conditioned medium)
The assay can be described thus: ACE-2 Competitive Substrate Assay (ACS Assay). Format: biochemical.

Setting [1] is: Ki class, compounds tested in 5% DMSO, 12 compound concentrations, Ki=Kiapp/(1+[S]/Km), read-out: Human ACE-2 Activity.
Where [2] appears, read: Table 3, very good ACE-2 inhibiting compounds, species not given, read-out: ACE-2 Activity, Ki.
Setting [3] is: Ki class per key, compounds tested in 5% DMSO, 12 compound concentrations, 25° C., Ki=Kiapp/(1+[S]/Km), read-out: Human ACE-2 Activity.

T1 sequence (Q9BYF1 18-740 limits assumed): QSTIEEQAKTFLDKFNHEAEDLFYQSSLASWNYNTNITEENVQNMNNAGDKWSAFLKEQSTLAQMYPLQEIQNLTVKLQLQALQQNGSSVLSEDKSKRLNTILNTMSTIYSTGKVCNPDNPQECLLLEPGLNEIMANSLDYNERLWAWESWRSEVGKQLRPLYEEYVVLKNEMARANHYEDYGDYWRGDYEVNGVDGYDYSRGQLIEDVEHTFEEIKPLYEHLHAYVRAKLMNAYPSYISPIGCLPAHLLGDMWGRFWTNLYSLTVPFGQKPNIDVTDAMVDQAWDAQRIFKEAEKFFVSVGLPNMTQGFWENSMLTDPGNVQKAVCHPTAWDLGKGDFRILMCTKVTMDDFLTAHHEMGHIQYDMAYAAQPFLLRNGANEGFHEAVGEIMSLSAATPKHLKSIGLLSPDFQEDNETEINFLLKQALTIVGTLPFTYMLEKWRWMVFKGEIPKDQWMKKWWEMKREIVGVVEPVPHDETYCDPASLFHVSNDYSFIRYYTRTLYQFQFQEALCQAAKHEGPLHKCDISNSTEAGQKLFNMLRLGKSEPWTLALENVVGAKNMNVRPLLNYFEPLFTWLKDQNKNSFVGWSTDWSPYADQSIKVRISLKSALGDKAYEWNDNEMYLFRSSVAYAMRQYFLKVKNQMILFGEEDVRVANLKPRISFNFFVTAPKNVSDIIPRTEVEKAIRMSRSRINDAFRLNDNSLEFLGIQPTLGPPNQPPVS

With `CC(C)C[C@H](N[C@@H](Cn1ccn(Cc2cccc(Cl)c2)c1=O)C(=O)O)C(=O)O` [OE, (S,S)-2-{1-Carboxy-2-[3-(3-chloro-benzyl)-2-oxo-2,3-dihydro-imidazol-1-yl]-ethylamino}-4-methyl-pentanoic acid], the Ki is, setting by setting: under setting [1], under 100 nM; under setting [2], under 50 nM.
`CC(C)C[C@H](N[C@@H](Cc1ccc(Cc2cc(Cl)cc(Cl)c2)cc1)C(=O)O)C(=O)O` [OF, (S,S)-2-{1-Carboxy-2-[4-(3,5-dichloro-benzyl)-phenyl]-ethylamino}-4-methyl-pentanoic acid]: under setting [1], the Ki was over 500 nM.
With `CC(C)C[C@H](N[C@@H](Cc1ccc(Cc2ccccc2)cc1)C(=O)O)C(=O)O` [OG, (S,S)-2-[2-(4-Benzyl-phenyl)-1-carboxy-ethylamino]-4-methyl-pentanoic acid], the Ki under setting [1] was under 100 nM and the Ki under setting [2] was in the range of 50 to 100 nM.
Consider `CC(C)C[C@H](N[C@@H](CC(=O)Nc1nc(-c2ccccc2)cs1)C(=O)O)C(=O)O` [OH, (S,S)-2-[1-Carboxy-2-(4-phenyl-thiazol-2-ylcarbamoyl)-ethylamino]-4-methyl-pentanoic acid], for which the Ki under setting [1] was over 500 nM.
Regarding `COc1ccc(-c2ccc(C[C@H](N[C@@H](CC(C)C)C(=O)O)C(=O)O)o2)cc1` [OI, (S,S)-2-{1-Carboxy-2-[5-(4-methoxy-phenyl)-furan-2-yl]-ethylamino}-4-methyl-pentanoic acid], the Ki under setting [1] was 100 to 500 nM.
Same read-out and setting: in the case of `CC(C)C[C@H](N[C@@H](Cc1ccc(-c2ccc3c(c2)OCO3)o1)C(=O)O)C(=O)O` [OJ, (S,S)-2-[2-(5-Benzo[1,3]dioxol-5-yl-furan-2-yl)-1-carboxy-ethylamino]-4-methyl-pentanoic acid] it was 100 to 500 nM; in that of `CC(C)C[C@H](N[C@@H](Cc1ccc(-c2cccc3ccccc23)o1)C(=O)O)C(=O)O` [OK], 100 to 500 nM.
Consider `CC(C)C[C@H](N[C@@H](Cc1ccc(-c2ccc(Cl)cc2)o1)C(=O)O)C(=O)O` [OL, (S,S)-2-{1-Carboxy-2-[5-(4-chloro-phenyl)-furan-2-yl]-ethylamino}-4-methyl-pentanoic acid], for which the Ki under setting [1] was over 500 nM.
The same measure, in the same setting: to `CC(C)C[C@H](N[C@@H](Cc1ccc(-c2ccc(C(F)(F)F)cc2)o1)C(=O)O)C(=O)O` [OM, (S,S)-2-{1-Carboxy-2-[5-(4-trifluoromethyl-phenyl)-furan-2-yl]-ethylamino}-4-methyl-pentanoic acid] belongs over 500 nM; to `CC(C)COc1cccc(C[C@H](N[C@@H](CC(C)C)C(=O)O)C(=O)O)c1` [ON, 2-[1-Carboxy-2-(3-isobutoxy-phenyl)-ethylamino]-4-methyl-pentanoic acid], over 500 nM.
As to `CC(C)C[C@H](N[C@@H](Cc1cccc(OCc2cccc(Cl)c2)c1)C(=O)O)C(=O)O` [OO, S,S-2-{1-Carboxy-2-[3-(3-chloro-benzyloxy)-phenyl]-ethylamino}-4-methyl-pentanoic acid], the Ki under setting [1] is under 100 nM and the Ki under setting [2] is 50 to 100 nM.
`CC(C)C[C@H](N[C@@H](Cc1cccc(OCc2ccccc2Cl)c1)C(=O)O)C(=O)O` [OP, S,S-2-{1-Carboxy-2-[3-(2-chloro-benzyloxy)-phenyl]-ethylamino}-4-methyl-pentanoic acid]: the Ki under setting [1] is over 500 nM.
The same measure, in the same setting: in the case of `CC(C)C[C@H](N[C@@H](CCc1ccc(OCc2ccccc2)cc1)C(=O)O)C(=O)O` [OQ, (S,S) 2-[3-(4-Benzyloxy-phenyl)-1-carboxy-propylamino]-4-methyl-pentanoic acid] it was 100 to 500 nM; in that of `CC(C)C[C@H](N[C@@H](Cc1ccn(-c2ccccc2)n1)C(=O)OC(C)(C)C)C(=O)O` [OR], over 500 nM.
`CC(C)C[C@H](N[C@@H](Cc1ccc(-c2cccc(Cl)c2)o1)C(=O)O)C(=O)O` [OS, (S), (S)-2-{1-Carboxy-2-[5-(3-chloro-phenyl)-furan-2-yl]-ethylamino}-4-methyl-pentanoic acid]: the Ki under setting [1] is over 500 nM.
Consider `CC(C)C[C@H](N[C@@H](Cn1ccn(Cc2cccc(F)c2)c1=O)C(=O)O)C(=O)O` [OT, 2-{1-Carboxy-2-[3-(3-fluoro-benzyl)-2-oxo-2,3-dihydro-imidazol-1-yl]-ethylamino]-4-methyl-pentanoic acid], for which the Ki is under 100 nM under setting [1] and 50 to 100 nM under setting [2].
Turning to `CC(C)C[C@H](N[C@@H](Cn1ccn(Cc2ccc(F)c(F)c2)c1=O)C(=O)O)C(=O)O` [OU, 2-[1-Carboxy-2-[3-(3,4-difluoro-benzyl)-2-oxo-2,3-dihydro-imidazol-1-yl]-ethylamino]-4-methyl-pentanoic acid], the Ki under setting [1] was in the range of 100 to 500 nM.
On to `CC(C)C[C@H](N[C@@H](CCC(=O)Nc1nc2ccc(F)cc2s1)C(=O)O)C(=O)O` [OV, (S,S)-2-[1-Carboxy-3-(6-fluoro-benzothiazol-2-ylcarbamoyl)-propylamino]-4-methyl-pentanoic acid], for which the Ki under setting [1] is over 500 nM.
`CC(C)C[C@H](N[C@@H](Cn1ccn(Cc2cc(F)ccc2F)c1=O)C(=O)O)C(=O)O` [OW, 2-[1-Carboxy-2-[3-(2,5-difluoro-benzyl)-2-oxo-2,3-dihydro-imidazol-1-yl]-ethylamino]-4-methyl-pentanoic acid]: the Ki runs as follows: under setting [1], under 100 nM; under setting [2], 50 to 100 nM.
Turning to `CC(C)C[C@H](N[C@@H](Cc1ccc(NC(=O)c2cc(F)cc(F)c2)cc1)C(=O)O)C(=O)O` [OX, (S,S) 2-{1-Carboxy-2-[4-(3,5-difluoro-benzoylamino)-phenyl]-ethylamino}-4-methyl-pentanoic acid], the Ki by setting is: under setting [3], under 100 nM; under setting [2], under 50 nM.
With `CC(C)C[C@H](N[C@@H](Cc1ccc(-c2ccc(F)cc2)cc1)C(=O)O)C(=O)O` [OY, (S,S)-[1-Carboxy-2-(4′-fluoro-biphenyl-4-yl)-ethylamino]-4-methyl-pentanoic acid], the Ki by setting is: under setting [3], under 100 nM; under setting [2], under 50 nM.
On the same counts, the results for `CC(C)C[C@H](N[C@@H](Cc1ccc(-c2ccc3c(c2)OCO3)cc1)C(=O)O)C(=O)O` [OZ, 2-[2-(4-Benzo[1,3]dioxol-5-yl-phenyl)-1-carboxy-ethylamino]-4-methyl-pentanoic acid] are under 100 nM and 50 to 100 nM.
On the same counts, the results for `CC(C)C[C@H](N[C@@H](Cc1ccc(-c2csc3ccccc23)cc1)C(=O)O)C(=O)O` [PA, 2-[2-(4-Benzo[b]thiophen-3-yl-phenyl)-1-carboxy-ethylamino]-4-methyl-pentanoic acid] are under 100 nM and under 50 nM.
For the compound `CC(C)C[C@H](N[C@@H](Cc1cccc(Cc2ccccc2)c1)C(=O)O)C(=O)O` [PB, (S,S)-2-[2-(3-Benzyl-phenyl)-1-carboxy-ethylamino]-4-methyl-pentanoic acid], under setting [3], the Ki was over 500 nM.
On to `CC(C)C[C@H](N[C@@H](Cc1ccc(-c2ccc(C(F)(F)F)cc2)cc1)C(=O)O)C(=O)O` [PC, (S,S)-2-[1-Carboxy-2-(4′-trifluoromethyl-biphenyl-4-yl)-ethylamino]-4-methyl-pentanoic acid], for which the Ki runs as follows: under setting [3], under 100 nM; under setting [2], 50 to 100 nM.
As for `CC(C)C[C@H](N[C@@H](Cc1ccc(NS(=O)(=O)c2ccccc2)cc1)C(=O)O)C(=O)O` [PE, (S,S) 2-[2-(4-Benzenesulfonylamino-phenyl)-1-carboxy-ethylamino]-4-methyl-pentanoic acid], the Ki under setting [3] was over 500 nM.
Regarding `CC(C)C[C@H](N[C@@H](Cc1cccc(Cc2cccc(Cl)c2)c1)C(=O)O)C(=O)O` [PF, 2-[1-Carboxy-2-[3-(3-chloro-benzyl)-phenyl]-ethylamino]-4-methyl-pentanoic acid], the Ki under setting [3] was 100 to 500 nM.
On the same count and under the same terms, in the case of `CC(C)C[C@H](N[C@@H](Cc1cccc(Cc2cc(Cl)cc(Cl)c2)c1)C(=O)O)C(=O)O` [PG, (S,S)-2-{1-Carboxy-2-[3-(3,5-dichloro-benzyl)-phenyl]-ethylamino}-4-methyl-pentanoic acid] it was 100 to 500 nM.
For the compound `CC(C)C[C@H](N[C@@H](Cc1cccc(OCc2csc3ccc(Cl)cc23)c1)C(=O)O)C(=O)O` [PH, S,S-2-{1-Carboxy-2-[3-(5-chloro-benzo[b]thiophen-3-ylmethoxy)-phenyl]-ethylamino}-4-methyl-pentanoic acid], the Ki is under 100 nM under setting [3] and under 50 nM under setting [2].
On the same counts, the results for `CC(C)C[C@H](N[C@@H](Cc1ccc(-c2ccccn2)cc1)C(=O)O)C(=O)O` [PI, (S,S)-2-[1-Carboxy-2-(4-pyridin-2-yl-phenyl)-ethylamino]-4-methyl-pentanoic acid] are under 100 nM and 50 to 100 nM.
For `CC(C)C[C@H](N[C@@H](Cc1ccc(-c2cccnc2)cc1)C(=O)O)C(=O)O` [PJ, (S,S)-2-[1-Carboxy-2-(4-pyridin-3-yl-phenyl)-ethylamino]-4-methyl-pentanoic acid] the same measures were under 100 nM and 50 to 100 nM.
As to `CC(C)C[C@H](N[C@@H](Cc1ccc(-c2ccncc2)cc1)C(=O)O)C(=O)O` [PK, (S,S)-2-[1-Carboxy-2-(4-pyridin-4-yl-phenyl)-ethylamino]-4-methyl-pentanoic acid], under setting [3], the Ki is 100 to 500 nM.
As to `C[C@H](N[C@@H](Cc1cncn1Cc1cc(Cl)cc(Cl)c1)C(=O)O)C(=O)O` [PL, (S,S) 2-(1-Carboxy-ethylamino)-3-[3-(3,5-dichloro-benzyl)-3H-imidazol-4-yl]-propionic acid], the Ki was under 100 nM under setting [3] and under 50 nM under setting [2].
Take `C[C@@H](N[C@@H](Cc1cncn1Cc1cc(Cl)cc(Cl)c1)C(=O)O)C(=O)O` [PM, 2-(1-Carboxy-ethylamino)-3-[3-(3,5-dichloro-benzyl)-3H-imidazol-4-yl]-propionic acid]: the Ki under setting [3] was over 500 nM.
`O=C(O)[C@H](CCc1ccccc1)N[C@@H](Cc1cncn1Cc1cc(Cl)cc(Cl)c1)C(=O)O` [PN, (S,S) 2-{1-Carboxy-2-[3-(3,5-dichloro-benzyl)-3H-imidazol-4-yl]-ethylamino}-4-phenyl-butyric acid]: the Ki was under 100 nM under setting [3] and under 50 nM under setting [2].
